IC50 data for 25 molecules are collected here from patent publication US20070049593A1 (priority 2004, published 2007).

For this assay, the target named is T1, HCV polymerase (Hepatitis C virus genotype 1b, UniProt P26663).
T1 construct: a region encoding NS5B (J Virol 1991 March, 65(3), 1105-13, 544 amino acids after deletion of 47 amino acids on the C-terminal); 6xHis (C); made in house; host or cells: Escherichia coli
The assay can be described thus: biochemical. Further details: species or system HCV BK strain. In outline:
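Recombinant HCV BK-strain NS5B (C-terminal 47 aa deleted, His6-tagged, E. coli), 0.5 μg/ml, run with 5 μg/ml in vitro-transcribed RNA template (polyU/3′X), ATP/GTP/CTP 50 μM, UTP 2 μM plus [3H]UTP, pH 7.5, 25° C, 90 min. TCA-precipitated RNA counted by scintillation; IC50 from activity with vs without compound.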

Structures can show the parent of a compound that is named as a salt.

T1 sequence (P26663 2420-2963): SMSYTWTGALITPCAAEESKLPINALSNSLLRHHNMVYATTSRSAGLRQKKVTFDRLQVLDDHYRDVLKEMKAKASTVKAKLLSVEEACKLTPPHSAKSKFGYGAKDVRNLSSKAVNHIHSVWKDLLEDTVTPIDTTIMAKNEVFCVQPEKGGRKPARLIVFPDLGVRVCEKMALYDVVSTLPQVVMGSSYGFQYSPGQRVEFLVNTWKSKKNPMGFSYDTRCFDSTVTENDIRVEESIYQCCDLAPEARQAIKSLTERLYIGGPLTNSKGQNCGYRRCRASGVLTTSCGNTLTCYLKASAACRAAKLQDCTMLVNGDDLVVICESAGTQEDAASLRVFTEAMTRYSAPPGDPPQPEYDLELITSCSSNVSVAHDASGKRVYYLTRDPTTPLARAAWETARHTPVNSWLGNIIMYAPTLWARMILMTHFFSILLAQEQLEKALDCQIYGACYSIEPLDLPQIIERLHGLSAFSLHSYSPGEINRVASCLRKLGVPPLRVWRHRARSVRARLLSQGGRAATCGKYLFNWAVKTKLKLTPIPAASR

Take `CCN(CC)CCCCN1CCn2c(c(C3CCCCC3)c3ccc(C(=O)O)cc32)-c2ccc(Cl)cc21` [Example 1-424, 3-chloro-13-cyclohexyl-5-(4-diethylaminobutyl)-6,7-dihydro-5H-benzo[5,6][1,4]diazepino[7,1-a]indole-10-carboxylic acid]: the IC50 (usually the point on the concentration scale where inhibition reaches its midpoint) was less than 0.1 µM.

In turn, `Cc1ccc2c(c1)N(CCCCN1CCCCC1)CCn1c-2c(C2CCCCC2)c2ccc(C(=O)O)cc21` [Example 1-425, 13-cyclohexyl-3-methyl-5-[4-(piperidin-1-yl)butyl]-6,7-dihydro-5H-benzo[5,6][1,4]diazepino[7,1-a]indole-10-carboxylic acid dihydrochloride] yielded an IC50 of less than 0.1 µM.

With `CN1CCCC1CCN1CCn2c(c(C3CCCCC3)c3ccc(C(=O)O)cc32)-c2ccc(Cl)cc21` (stereo not shown) [Example 1-426, 3-chloro-13-cyclohexyl-5-[2-(1-methylpyrrolidin-2-yl)ethyl]-6,7-dihydro-5H-benzo[5,6][1,4]diazepino[7,1-a]indole-10-carboxylic acid dihydrochloride], the IC50 is less than 0.1 µM.

As for `CCOc1ccc2c(c1)N(CCN1CCC[C@@H](CCOC)C1)CCn1c-2c(C2CCCCC2)c2ccc(C(=O)O)cc21` [Example 1-427, 13-cyclohexyl-3-ethoxy-5-{2-[(S)-3-(2-methoxyethyl)piperidin-1-yl]ethyl}-6,7-dihydro-5H-benzo[5,6][1,4]diazepino[7,1-a]indole-10-carboxylic acid dihydrochloride], the IC50 was less than 0.1 µM.

Consider `CCCN(CC)CCCN1CCn2c(c(C3CCCCC3)c3ccc(C(=O)O)cc32)-c2ccc(Cl)cc21` [Example 1-428, 3-chloro-13-cyclohexyl-5-[3-(N-ethyl-N-propylamino)propyl]-6,7-dihydro-5H-benzo[5,6][1,4]diazepino[7,1-a]indole-10-carboxylic acid dihydrochloride], for which the IC50 was less than 0.1 µM.

In turn, `CC(C)N(CCCN1CCn2c(c(C3CCCCC3)c3ccc(C(=O)O)cc32)-c2ccc(Cl)cc21)C(C)C` [Example 1-429, 3-chloro-13-cyclohexyl-5-(3-diisopropylaminopropyl)-6,7-dihydro-5H-benzo[5,6][1,4]diazepino[7,1-a]indole-10-carboxylic acid dihydrochloride] showed a concentration for half-maximal inhibition (IC50) of less than 0.1 µM.

The molecule `CCc1ccc2c(c1)N(CCN1CCC[C@@H](CCOC)C1)CCn1c-2c(C2CCCCC2)c2ccc(C(=O)O)cc21` [Example 1-430, 13-cyclohexyl-3-ethyl-5-{2-[(S)-3-(2-methoxyethyl)piperidin-1-yl]ethyl}-6,7-dihydro-5H-benzo[5,6][1,4]diazepino[7,1-a]indole-10-carboxylic acid dihydrochloride] registered an IC50 of less than 0.1 µM.

Consider `CCN(CCCN1CCn2c(c(C3CCCCC3)c3ccc(C(=O)O)cc32)-c2ccc(Cl)cc21)CCOC` [Example 1-431, 3-chloro-13-cyclohexyl-5-{3-[N-ethyl-N-(2-methoxyethyl)amino]propyl}-6,7-dihydro-5H-benzo[5,6][1,4]diazepino[7,1-a]indole-10-carboxylic acid dihydrochloride], for which the 50% inhibitory concentration (IC50) is less than 0.1 µM.

Turning to `CCN(CCCOC)CCCN1CCn2c(c(C3CCCCC3)c3ccc(C(=O)O)cc32)-c2ccc(Cl)cc21` [Example 1-432, 3-chloro-13-cyclohexyl-5-{3-[N-ethyl-N-(3-methoxypropyl)amino]propyl}-6,7-dihydro-5H-benzo[5,6][1,4]diazepino[7,1-a]indole-10-carboxylic acid dihydrochloride], the 50% inhibitory concentration (IC50) is less than 0.1 µM.

`CCOCCCN(CC)CCCN1CCn2c(c(C3CCCCC3)c3ccc(C(=O)O)cc32)-c2ccc(Cl)cc21` [Example 1-433, 3-chloro-13-cyclohexyl-5-{3-[N-(3-ethoxypropyl)-N-ethylamino]propyl}-6,7-dihydro-5H-benzo[5,6][1,4]diazepino[7,1-a]indole-10-carboxylic acid dihydrochloride] had an IC50 of less than 0.1 µM.

Regarding `COCC[C@@H]1CCCN(CCN2CCn3c(c(C4CCCCC4)c4ccc(C(=O)O)cc43)-c3ccc(F)cc32)C1` [Example 1-434, 13-cyclohexyl-3-fluoro-5-{2-[(S)-3-(2-methoxyethyl)piperidin-1-yl]ethyl}-6,7-dihydro-5H-benzo[5,6][1,4]diazepino[7,1-a]indole-10-carboxylic acid dihydrochloride], the IC50 was less than 0.1 µM.

Consider `Cc1ccc2c(c1)N(CCN1CCCC(CO)C1)CCn1c-2c(C2CCCCC2)c2ccc(C(=O)O)cc21` (stereo not shown) [Example 1-435, 13-cyclohexyl-5-[2-(3-hydroxymethylpiperidin-1-yl)ethyl]-3-methyl-6,7-dihydro-5H-benzo[5,6][1,4]diazepino[7,1-a]indole-10-carboxylic acid dihydrochloride], for which the IC50 was less than 0.1 µM.

For `CCN(CC)CC(C)(C)CN1CCn2c(c(C3CCCCC3)c3ccc(C(=O)O)cc32)-c2ccc(Cl)cc21` [Example 1-436, 3-chloro-13-cyclohexyl-5-(3-diethylamino-2,2-dimethylpropyl)-6,7-dihydro-5H-benzo[5,6][1,4]diazepino[7,1-a]indole-10-carboxylic acid dihydrochloride], the IC50 was less than 0.1 µM.

`CN1CCn2c(c(C3CCCCC3)c3ccc(C(=O)O)cc32)-c2ccc(OCCN3CCCCC3)cc21` [Example 1-437, 13-cyclohexyl-5-methyl-3-[2-(piperidin-1-yl)ethoxy]-6,7-dihydro-5H-benzo[5,6][1,4]diazepino[7,1-a]indole-10-carboxylic acid dihydrochloride] yielded an IC50 of less than 0.1 µM.

`CN1CCn2c(c(C3CCCCC3)c3ccc(C(=O)O)cc32)-c2ccc(OCCC3CCNCC3)cc21` [Example 1-438, 13-cyclohexyl-5-methyl-3-[2-(piperidin-4-yl)ethoxy]-6,7-dihydro-5H-benzo[5,6][1,4]diazepino[7,1-a]indole-10-carboxylic acid dihydrochloride]: the half-maximal inhibitory concentration (IC50) is less than 0.1 µM.

For `CN1CCC(CCOc2ccc3c(c2)N(C)CCn2c-3c(C3CCCCC3)c3ccc(C(=O)O)cc32)CC1` [Example 1-439, 13-cyclohexyl-5-methyl-3-[2-(1-methylpiperidin-4-yl)ethoxy]-6,7-dihydro-5H-benzo[5,6][1,4]diazepino[7,1-a]indole-10-carboxylic acid dihydrochloride], the IC50 was less than 0.1 µM.

As for `Cc1ccc2c(c1)N(CCN1CCCC(C)(C)C1)CCn1c-2c(C2CCCCC2)c2ccc(C(=O)O)cc21` [Example 1-440, 13-cyclohexyl-5-[2-(3,3-dimethylpiperidin-1-yl)ethyl]-3-methyl-6,7-dihydro-5H-benzo[5,6][1,4]diazepino[7,1-a]indole-10-carboxylic acid dihydrochloride], the IC50 is less than 0.1 µM.

For the molecule `CCN(CC)CC(CN1CCn2c(c(C3CCCCC3)c3ccc(C(=O)O)cc32)-c2ccc(Cl)cc21)OC` (stereo not shown) [Example 1-441, 3-chloro-13-cyclohexyl-5-(3-diethylamino-2-methoxypropyl)-6,7-dihydro-5H-benzo[5,6][1,4]diazepino[7,1-a]indole-10-carboxylic acid dihydrochloride], the IC50 is less than 0.1 µM.

Consider `CCN(CCO)CCCN1CCn2c(c(C3CCCCC3)c3ccc(C(=O)O)cc32)-c2ccc(Cl)cc21` [Example 1-442, 3-chloro-13-cyclohexyl-5-{3-[N-ethyl-N-(2-hydroxyethyl)amino]propyl}-6,7-dihydro-5H-benzo[5,6][1,4]diazepino[7,1-a]indole-10-carboxylic acid dihydrochloride], for which the IC50 was less than 0.1 µM.

For `Cc1ccc2c(c1)N(CCN1CCC(CO)CC1)CCn1c-2c(C2CCCCC2)c2ccc(C(=O)O)cc21` [Example 1-443, 13-cyclohexyl-5-[2-(4-hydroxymethylpiperidin-1-yl)ethyl]-3-methyl-6,7-dihydro-5H-benzo[5,6][1,4]diazepino[7,1-a]indole-10-carboxylic acid dihydrochloride], the IC50 was less than 0.1 µM.

The molecule `O=C(O)c1ccc2c(C3CCCCC3)c3n(c2c1)CCN(CCN1CCC[C@@H](CCOc2ccccc2)C1)c1ccccc1-3` [Example 1-444, 13-cyclohexyl-5-{2-[(S)-3-(2-phenoxyethyl)piperidin-1-yl]ethyl}-6,7-dihydro-5H-benzo[5,6][1,4]diazepino[7,1-a]indole-10-carboxylic acid dihydrochloride] returned a half-maximal inhibitory concentration (IC50) of less than 0.1 µM.

`COCC[C@@H]1CCCN(CCN2CCn3c(c(C4CCCCC4)c4ccc(C(=O)O)cc43)-c3ccc(OC)cc32)C1` [Example 1-445, 13-cyclohexyl-3-methoxy-5-{2-[(S)-3-(2-methoxyethyl)piperidin-1-yl]ethyl}-6,7-dihydro-5H-benzo[5,6][1,4]diazepino[7,1-a]indole-10-carboxylic acid dihydrochloride] came in with an IC50 of less than 0.1 µM.

With `CSc1ccc2c(c1)N(C)CCn1c-2c(C2CCCCC2)c2ccc(C(=O)NC3(C(=O)Nc4ccc(/C=C/C(=O)O)cc4)CCC3)cc21` [Example 1-450, (E)-3-[4-({1-[(13-cyclohexyl-5-methyl-3-methylsulfanyl-6,7-dihydro-5H-benzo[5,6][1,4]diazepino[7,1-a]indole-10-carbonyl)amino]cyclobutanecarbonyl}amino)phenyl]acrylic acid], the IC50 was less than 0.1 µM.

The molecule `Cc1ccc2c(c1)N(CCN1CCCCC1)CCn1c-2c(C2CCCCC2)c2ccc(C(=O)O)c(Cl)c21` [Example 1-451, 9-chloro-13-cyclohexyl-3-methyl-5-[2-(piperidin-1-yl)ethyl]-6,7-dihydro-5H-benzo[5,6][1,4]diazepino[7,1-a]indole-10-carboxylic acid dihydrochloride] displayed an IC50 of less than 0.1 µM.

Turning to `Cc1ccc2c(c1)N(C)CCn1c-2c(C2CCCCC2)c2ccc(C(=O)O)c(Cl)c21` [Example 1-452, 9-chloro-13-cyclohexyl-3,5-dimethyl-6,7-dihydro-5H-benzo[5,6][1,4]diazepino[7,1-a]indole-10-carboxylic acid], the IC50 is less than 0.1 µM.
